Measurements: US4358444A, “2,4-Dioxacyclohexanone derivative” (Dr. L. Zambeletti S.p.A., priority 1981, dated 1982)
Where two headings read alike, the source gives them in different places.

Experiments:
[1] = system: yeast induced hypertermia; assay: Yeast induced hypertermia test (antipyretic activity); type: in vivo, rat
Description: This activity has been investigated by means of the yeast induced hypertermia test in the rat, taking again acetylsalycilic acid, administered at equimolecular dosages, as the comparison substance.

gastric mucosa = assay: Gastrolesive activity after oral administration; type: in vivo, rats; details: for gastric tolerability / gastrolesive effect (in words): oral
Experimental: MR 693 and acetylsalycilic acid as the comparison substance were administered by oral route to rats fastened from at least 18 hours.
After six hours from the beginning of the experiment, the rats were sacrificed and the stomachs were opened and examined in order to verify the presence of lesions on the gastric mucosa.

[2] = system: carrageenin induced edema; assay: Carrageenin induced edema test (antinflammatory activity); type: in vivo, rats; details: for reduction of the edema / antiinflammatory action compared with acetylsalicylic acid (in words): oral, equimolecular dosages
Description: The antinflammatory properties of MR 693 have been investigated by means of the carrageenin induced edema test in rats, by administering the compound of the invention by oral route and using acetylsalycilic acid as the comparison substance, at equimolecular dosages.

[3] = type: in vivo; details: for distribution / route of excretion/elimination: metabolite
[4] = system: citric acid aerosol induced cough; assay: Citric acid aerosol induced cough test (antitussive activity); details: for antitussive activity compared with codeine (in words): 500 mg/kg oral vs codeine 25 mg/kg oral, general statement in b2
rats [5] = assay: Chronic toxicity in rats, oral, 24 weeks; type: in vivo
Description: (§1) Chronic toxicity studies have been carried out on rats, administered by oral route with MR 693 for 24 consecutive weeks, and dogs, administered by oral and rectal route with the compound of the invention again for 24 weeks.
(§2) The parameters which have been taken into consideration are as follows:
(§3) biochemical examination of the blood glycosuria, proteinuria, haematuria, albuminuria
(§4) weight and hystological control of the principal organs;

Acute toxicity in rats = details: in vivo, rat, read-out: DL50 (the source's name)
Description: (§5) Acute toxicity tests have been carried out in mice rats, by administering the compound of the invention by oral and intraperitoneal route.

rabbits = assay: Theratogenesis studies in rabbits; type: in vivo; details: oral, all along the pregnancy
Description: (§6) Theratogenesis studies have been carried out on rats and rabbits, which have been treated by oral route with MR 693 all along the duration of the pregnancy. […]
(§7) number of pregnant females […]
(§8) initial body weight/end body weight (of the mothers) […]
(§9) average number of lived foetuses total number of dead foetuses total number of re-absorptions average weight of lived foetuses

rats [6] = assay: Theratogenesis studies in rats; type: in vivo; details: oral, all along the pregnancy
Description: as §6, §7, §8, §9

dogs [7] = assay: Chronic toxicity in dogs, oral and rectal, 24 weeks; type: in vivo
Description: as §1, §2, §3, §4

rats [8] = assay: Subacute toxicity in rats, oral, four weeks; type: in vivo; details: four consecutive weeks
Description: (§10) Subacute toxicity studies have been carried out on rats and dogs, by administering MR 693 by oral route for four consecutive weeks.
as §2
(§11) glycosuria, proteinuria, albuminuria and haematuria
(§12) weight of the principal organs

esterase = assay: In vitro metabolism (enzymatic hydrolysis); type: in vitro ADME
Description: Studies have been performed both in vitro and in vivo.

Acute toxicity in mice = details: in vivo, po; mouse, os; read-out: DL50 (the source's name)
Description: as §5

dogs [9] = assay: Subacute toxicity in dogs, oral, four weeks; type: in vivo; details: four consecutive weeks
Description: as §10, §2, §11, §12

[10] = Toxicity, overall statement (acute, subacute and chronic); type: in vivo
Description: as §5, §10, §1

[11] = 250 mg/kg os (equimolecular dosage)
[12] = 400 mg/kg os (equimolecular dosage)
[13] = listed as 3-(2-methoxy-phenoxy)-3-methyl-benzo-2,4-dioxacyclohexanone

Compound: CC(=O)Oc1ccccc1C(=O)O [Acetylsalycilic acid, acetylsalicylic acid, reference compound]
- % Inhibition (yeast induced hypertermia) [1, 11]: 103%
- Average diameter of the lesions (gastric mucosa; 250 mg/kg os, six hours (equimolecular dosage)): 3.7 ± 0.8 mm
- % Inhibition of the edema [2, 11]: 33%
- concentration observed in the lungs compared with plasma and liver ([3]; in vivo): higher than those observed in the plasma and the liver
- distribution ([3]; after administration of MR 693): enter the systemic circulation

Compound: COc1ccc2c3c1O[C@H]1[C@@H](O)C=C[C@H]4[C@@H](C2)N(C)CC[C@@]341 [Codeine, codeine, reference compound]
- % Inhibition of cough-strokes ([4]; 12.5 mg/kg i.p.): 93.7%
- % Inhibition of cough-strokes ([4]; 25 mg/kg os): 76.7%
- inhibition at 12.5 mg/kg ([4]; Cavia porcellus, ip, read-out: % Inhibition of cough-strokes, 12.5 mg/kg i.p.): 93%

Compound: COc1ccccc1OC1(C)OC(=O)c2ccccc2O1 (stereo not drawn) [MR 693, 3-(2-methoxy-phenoxy)-3-methyl-benzo-2,4-dioxacyclohexanone]
- alterations or anatomo-pathological states (chronic toxicity) (rats [5]; 24 consecutive weeks): no alterations or particularly significant anatomo-pathological states
- alteration of the mucosae of the gastro-intestinal tract (rats [5]; 24 weeks): did not show any alteration of the mucosae
- LD50 (Acute toxicity in rats; ip, i.p.): 1750 mg/kg
- LD50 (Acute toxicity in rats; po, os): > 3000 mg/kg
- % Inhibition (yeast induced hypertermia) [1, 12]: 86%
- antipyretic activity compared with acetylsalicylic acid (in words) ([1]; oral, equimolecular dosages, listed as 3-(2-methoxy-phenoxy)-3-methyl-benzo-2,4-dioxacyclohexanone): only slightly lower than that displayed, again, by acetylsalicylic acid
- theratogenesis: alterations (rabbits): no alteration
- theratogenesis: number of litters alive (rabbits): no variation of the number of litters alive
- theratogenesis: somatic or skeletal malformations (rabbits): neither somatic not skeletal malformations have been observed
- theratogenesis: alterations (rats [6]): no alteration
- theratogenesis: number of litters alive (rats [6]): no variation of the number of litters alive
- theratogenesis: somatic or skeletal malformations (rats [6]): neither somatic not skeletal malformations have been observed
- Average diameter of the lesions (gastric mucosa; 100 mg/kg os, six hours): 0 mm
- Average diameter of the lesions (gastric mucosa; 400 mg/kg os, six hours (equimolecular dosage)): 0 mm
- gastric tolerability / gastrolesive effect (in words) (gastric mucosa): perfectly tolerated at gastric level
- gastric tolerability / gastrolesive effect (in words) (gastric mucosa; [13]): complete absence of any gastrolesive effect
- alteration of the mucosae of the gastro-intestinal tract (dogs [7]): did not show any alteration of the mucosae
- alterations or anatomo-pathological states (chronic toxicity) (dogs [7]): no alterations or particularly significant anatomo-pathological states
- alterations or malformations (subacute toxicity) (rats [8]): in no case alterations or malformations ascribable to the treatment
- enzymatic hydrolysis (metabolites) (esterase): enzymatically hydrolyzed to acetylsalycilic acid and guaiacol
- organs displaying the highest esterase activity (esterase): the lungs and the kidneys
- % Inhibition of the edema [2, 12]: 30%
- reduction of the edema / antiinflammatory action compared with acetylsalicylic acid (in words) [2]: marked reduction of the edema
- reduction of the edema / antiinflammatory action compared with acetylsalicylic acid (in words) [2, 13]: practically is the same as that possessed by acetylsalicylic acid
- pulmonary tropism ([3]; in vivo): relative better pulmonary tropism
- absorption ([3]; in vivo, po): absorbed as such for the major part
- metabolites in vivo ([3]; in vivo, po): hydrolyzed to acetylsalycilic acid, salycilic acid and guaiacol
- LD50 (Acute toxicity in mice): > 3000 mg/kg
- alterations or malformations (subacute toxicity) (dogs [9]): in no case alterations or malformations ascribable to the treatment
- toxicity (in words) [10, 13]: almost negligible toxicity (both acute, subacute and chronic)
- toxicity (in words) ([10]; listed as mr 693): very little toxic compound
- reduction over the controls of the number of cough-strokes (in words) ([4]; 500 mg/kg oral): marked reduction
- antitussive activity compared with codeine (in words) [4]: better than that displayed, under the same conditions, by an oral dosage of 25 mg/kg of codeine
- antitussive activity compared with codeine (in words) [4, 13]: higher than that of codeine
- % Inhibition of cough-strokes ([4]; 500 mg/kg os): 84.3%
- inhibition at 100 mg/kg ([4]; Cavia porcellus, ip, read-out: % Inhibition of cough-strokes): 100%

Compound: COc1ccccc1O [guaiacol]
- pulmonary tropism ([3]; assumed from lung concentrations and pulmonary tropism of guaiacol): marked pulmonary tropism
- absorption ([3]; in vivo, after oral administration of MR 693): mainly absorbed by pre-systemic route
- distribution ([3]; after administration of MR 693): enters the lungs through the lymphatic vessels
- route of excretion/elimination ([3]; after administration of MR 693): eliminated by respiratory route

Compound: O=C(O)c1ccccc1O [salycilic acid]
- concentration observed in the lungs compared with plasma and liver ([3]; after administration of MR 693): higher than those observed in the plasma and the liver
- distribution ([3]; after administration of MR 693): enter the systemic circulation
- route of excretion/elimination ([3]; after administration of MR 693): excreted by urinary route
